From the supplement of paper PMC10307832

Legend:
Experiment in all cases: relative viability (nuclei count vs DMSO), 5 days (fraction); higher = more cells survive
[1] = compound: CC1(COc2ccc3c(c2)ncn3-c2ccc3cccc(N4CCC(N)CC4)c3n2)COC1 [Crenolanib] + CC1(C)CCC(c2ccc(Cl)cc2)=C(CN2CCN(c3ccc(C(=O)NS(=O)(=O)c4ccc(N[C@H](CCN5CCOCC5)CSc5ccccc5)c(S(=O)(=O)C(F)(F)F)c4)cc3)CC2)C1 [Navitoclax] (partner 0.5 µM)
Procedure, shortened: (§1)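 Relative viability divides the nuclei count in treated wells by that in vehicle wells. Lung cancer cell lines were seeded in 1536-well plates, dosed by pin tool the next day, and fixed and stained after 5 days in one step with final 0.05% Triton X-100, 1% formaldehyde and 1 ug/ml Hoechst. Dosing was a single drug or a fixed anchor-drug dose plus five library-drug doses (not always all listed) in √10 steps, and values are medians of duplicate plates imaged at 4×.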

[2] = compound: O=C1NC(=O)[C@@H](c2cn3c4c(cccc24)CCC3)[C@@H]1c1c[nH]c2ccccc12 [Tivantinib] + N=C(N)NC(=N)NCCc1ccccc1 [Phenformin] (partner 250 µM)
Procedure, shortened: as §1

[3] = compound: O=C1NC(=O)[C@@H](c2cn3c4c(cccc24)CCC3)[C@@H]1c1c[nH]c2ccccc12 [Tivantinib]
Procedure, shortened: (§2)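 Five library-drug doses, separated by factors of √10, were pinned into 1536-well plates holding lung cancer cell lines after an overnight stay at 37 °C. Cells were fixed, permeabilised and Hoechst-stained in one step after 5 days without medium change, then imaged at 4×. Viability compares treated-well with vehicle-well nuclei, counted in MetaXpress, as a median across plates. Passing plates had control CV below 25% and at least one doubling.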

[4] = compound: CC1(COc2ccc3c(c2)ncn3-c2ccc3cccc(N4CCC(N)CC4)c3n2)COC1 [Crenolanib]
Procedure, shortened: as §2

Row | Cell Line | relative viability ([1]; first compound 0.01 µM) | relative viability ([1]; first compound 0.03162 µM) | relative viability ([1]; first compound 0.1 µM) | relative viability ([1]; first compound 0.3162 µM) | relative viability ([1]; first compound 1 µM) | relative viability ([2]; first compound 0.01 µM) | relative viability ([2]; first compound 0.03162 µM) | relative viability ([2]; first compound 0.1 µM) | relative viability ([2]; first compound 0.3162 µM) | relative viability ([3]; 0.01 µM) | relative viability ([3]; 0.03162 µM) | relative viability ([3]; 0.1 µM) | relative viability ([3]; 0.3162 µM) | relative viability ([4]; 0.01 µM) | relative viability ([4]; 0.03162 µM) | relative viability ([4]; 0.1 µM) | relative viability ([4]; 0.3162 µM) | relative viability ([4]; 1 µM)
1 | CAL-12T | 1.48 | 1.19 | 1.22 | 1.48 | 1.26 | 0.639 | 0.529 | 0.582 | 0.259 | 1.1 | 0.853 | 0.969 | 0.627 | 1.07 | 0.948 | 0.984 | 1.05 | 0.992
2 | SK-LU-1 | 0.923 | 1.02 | 0.472 | 1.05 | 0.803 | 0.536 | 0.539 | 0.497 | 0.601 | 1.08 | 1.08 | 0.987 | 1.01 | 1.03 | 1.04 | 0.755 | 1.08 | 1.04
3 | NCI-H1651 | 1.1 | 1.07 | 0.935 | 1.23 | 1.03 | 0.348 | 0.287 | 0.318 | 0.376 | 1.02 | 0.938 | 0.874 | 0.971 | 0.952 | 0.928 | 0.958 | 0.989 | 0.932
4 | BEN | 0.0589 | 0.0559 | 0.0723 | 0.0658 | 0.0687 | 0.29 | 0.258 | 0.254 | 0.26 | 1 | 0.854 | 0.873 | 0.786 | 0.989 | 0.877 | 0.962 | 0.988 | 0.965
5 | EMC-BAC-2 | 1.22 | 1.21 | 1.09 | 1.36 | 1.16 | 0.566 | 0.453 | 0.528 | 0.528 | 1.01 | 0.962 | 0.997 | 0.998 | 1.08 | – | 0.994 | 1.13 | 0.84
6 | LXF-289 | 0.92 | 0.977 | 0.873 | 1 | 0.929 | 0.536 | 0.542 | 0.528 | 0.504 | 1.03 | 1.03 | 0.977 | 1.01 | 0.964 | 0.996 | 0.97 | 1.01 | 0.976
7 | ABC-1 | – | – | – | – | – | 0.23 | 0.246 | 0.201 | 0.228 | 0.887 | 0.98 | 0.821 | 0.805 | 1.08 | 0.876 | 0.855 | 0.985 | 0.795
8 | NCI-H2170 | 0.612 | 0.549 | 0.65 | 0.665 | 0.579 | 0.429 | 0.437 | 0.401 | – | 1.01 | 0.922 | 0.921 | – | 0.998 | 1.04 | 0.943 | 1.01 | 1.01
9 | EBC-1 | 0.504 | 0.395 | 0.467 | 0.566 | 0.571 | – | – | – | – | 1.05 | 0.859 | 0.933 | 0.994 | 1.06 | 0.961 | 0.989 | 1.03 | 1.03
10 | NCI-H1563 | – | – | – | – | – | 0.581 | 0.636 | 0.631 | 0.63 | 1.03 | 0.988 | 0.841 | 0.822 | 1.02 | 0.877 | 1 | 0.952 | 0.928
11 | NCI-H2342 | – | – | – | – | – | 0.579 | 0.671 | 0.568 | 0.495 | 1.1 | 0.983 | 0.934 | 0.815 | 1.07 | 0.844 | 0.924 | 1.09 | 0.968
12 | NCI-H661 | – | – | – | – | – | 0.288 | 0.281 | 0.404 | 0.271 | 1.07 | 0.971 | 0.956 | 0.811 | 0.962 | 1 | 1.02 | 1.04 | 1.01
13 | NCI-H650 | – | – | – | – | – | 0.47 | 0.387 | 0.448 | 0.479 | 0.98 | 0.671 | 0.896 | 0.943 | 0.999 | 0.798 | 0.963 | 0.868 | 0.887
14 | NCI-H358 | – | – | – | – | – | 0.339 | 0.327 | 0.282 | 0.189 | 0.94 | 0.909 | 0.865 | 0.355 | 1.03 | 1.04 | 0.856 | 0.924 | 0.672
15 | NCI-H1299 | 1.04 | 1.04 | 0.987 | 1.08 | 1.06 | – | – | – | – | 0.998 | 0.986 | 0.998 | 1.03 | 1.01 | 0.995 | 0.982 | 1.02 | 0.997
16 | SW 900 | – | – | – | – | – | 0.693 | 0.527 | 0.573 | 0.474 | 1.05 | 0.709 | 0.928 | 0.878 | 0.813 | 0.851 | 1.06 | 0.86 | 0.645
17 | IA-LM | 0.749 | 0.692 | 0.809 | 0.95 | 0.948 | – | – | – | – | 0.956 | 0.897 | 0.864 | 0.978 | 1.1 | 0.888 | 0.852 | 1.07 | 1.1
18 | NCI-H1648 | – | – | – | – | – | – | – | – | – | 0.818 | 0.863 | 0.984 | 0.323 | 0.878 | 0.605 | 0.871 | 0.865 | 1.07
